Among the test systems are 786-0 renal; BT-549 breast; CCRF-CEM leukemia; COLO 205 colon; HCT-15 colon; HL-60(TB) leukemia; KM12 colon; PC-3 prostate; RXF 393 renal; SW-620 colon.
Common to all, as to assay: inhibition of tumour cell growth, NCI panel, 48 h

Where “and” joins values, the source holds several entries; their conditions need not be identical. Equal values may be shown once.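 Assay format: 96-well plates, 48-hour exposure. GI50 is the concentration that inhibits growth by half. TGI: total growth inhibition.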

Consider `O=[N+]([O-])c1ccccc1N/N=C\c1c[nH]c2ccccc12`, for which the GI50 with 786-0 renal was 18.8 µM; in the experiment with BT-549 breast it was over 21.5 µM; with CCRF-CEM leukemia, 5.1 µM; with COLO 205 colon, 24.5 µM; in the experiment with HCT-15 colon, 5.68 µM; in the experiment on HL-60(TB) leukemia, 5.56 µM. Also, the GI50 was 6.1 µM in the experiment on KM12 colon, 4.25 µM in the experiment on PC-3 prostate, 10.7 µM in the experiment with RXF 393 renal and 17.8 µM with SW-620 colon. The TGI with 786-0 renal is over 93.1 µM; with BT-549 breast, over 100 µM; with CCRF-CEM leukemia, over 100 µM; with COLO 205 colon it was over 100 µM; in the experiment with HCT-15 colon, over 100 µM; with HL-60(TB) leukemia it was over 100 µM. Moreover, the TGI in the experiment on KM12 colon was over 100 µM; in the experiment with PC-3 prostate it was over 100 µM; with RXF 393 renal it was 57.8 µM; with SW-620 colon it was over 100 µM.

`CC1=CC(=C(c2ccc(N)cc2)c2ccc(N)cc2)C=CC1=N`: the GI50 in the experiment with 786-0 renal was 1.64 µM and 8.26 µM; with BT-549 breast, 0.679 µM and 1.63 µM; with CCRF-CEM leukemia, 0.626 µM; in the experiment on COLO 205 colon, 0.373 µM and 1.77 µM; with HCT-15 colon, 4.61 µM and 14.5 µM; in the experiment with HL-60(TB) leukemia, 0.482 µM. The GI50 with KM12 colon was 0.557 µM and 2.72 µM; in the experiment on PC-3 prostate, 0.553 µM and 2.58 µM; in the experiment on RXF 393 renal, 3.17 µM and 5.67 µM; in the experiment with SW-620 colon, 0.668 µM and 3.25 µM. In addition, the TGI is 6.53 µM and 26.1 µM and 31.7 µM with 786-0 renal; 5.47 µM and 7.09 µM and 9.14 µM in the experiment with BT-549 breast; 8.16 µM and 31.3 µM with CCRF-CEM leukemia; 1.6 µM and 4.86 µM and 3.38 µM with COLO 205 colon; 45.1 µM and > 74.7 µM and > 100 µM in the experiment on HCT-15 colon; 3.51 µM and > 21.6 µM in the experiment with HL-60(TB) leukemia. Further, the TGI in the experiment on KM12 colon is 6.54 µM and 7.11 µM and 10.1 µM; in the experiment with PC-3 prostate, 10.6 µM and 18.2 µM and 10.1 µM; in the experiment with RXF 393 renal it was 12.2 µM and 34.5 µM and 22.9 µM; in the experiment with SW-620 colon it was 11.8 µM and 38.8 µM and 16 µM.

For `C/C(=C\CCc1ccoc1)CC/C=C(\C)CCCN1CCOCC1`, the GI50 in the experiment on 786-0 renal is 1.83 µM; in the experiment on BT-549 breast it was 1.88 µM; in the experiment with CCRF-CEM leukemia it was 2.79 µM; in the experiment with COLO 205 colon it was 3.15 µM; with HCT-15 colon, 2.98 µM; in the experiment with HL-60(TB) leukemia it was 2.5 µM. The GI50 in the experiment with KM12 colon was 4.11 µM; with PC-3 prostate it was 2.02 µM; with RXF 393 renal, 9.17 µM; in the experiment with SW-620 colon it was 3.43 µM. The TGI with 786-0 renal is 4.18 µM; with BT-549 breast it was 8.74 µM; in the experiment with CCRF-CEM leukemia, 11 µM; with COLO 205 colon it was 12.4 µM; in the experiment with HCT-15 colon, 11.8 µM; with HL-60(TB) leukemia, 5.5 µM. The TGI in the experiment with KM12 colon came out at 16.1 µM; in the experiment with PC-3 prostate, 10.5 µM; with RXF 393 renal it was 23.2 µM; in the experiment with SW-620 colon, 14.6 µM.

Turning to `CC1(C)CCC2=C(O1)c1ccccc1C(=O)C2=O`, the GI50 in the experiment with 786-0 renal is 1.99 µM; with BT-549 breast, 1.51 µM; in the experiment on CCRF-CEM leukemia, 3.3 µM; in the experiment on HCT-15 colon, 0.739 µM and 0.537 µM; in the experiment with HL-60(TB) leukemia, 2.83 µM; in the experiment with KM12 colon it was 1.7 µM. The GI50 was 1.24 µM in the experiment on PC-3 prostate, 1.66 µM in the experiment with RXF 393 renal and 1.86 µM in the experiment on SW-620 colon. Also, the TGI with 786-0 renal is 3.94 µM and 2.68 µM; in the experiment on BT-549 breast, 2.92 µM and 1.74 µM; with CCRF-CEM leukemia it was over 100 µM; with COLO 205 colon, 3.63 µM; in the experiment with HCT-15 colon, 2.33 µM and 1.79 µM; in the experiment with HL-60(TB) leukemia it was over 100 µM. Further, the TGI in the experiment with KM12 colon was 3.38 µM and 2.13 µM; in the experiment with PC-3 prostate, 3.01 µM and 6.31 µM; in the experiment with RXF 393 renal, 3.04 µM and 2.94 µM; in the experiment on SW-620 colon, 3.93 µM and 1.09 µM.

As for `COc1cc2nc(SCC(=O)Nc3cc(OC)c(OC)c(OC)c3)n(Cc3ccccc3)c(=O)c2cc1OC`, the GI50 is 3.51 µM in the experiment on 786-0 renal; 2.02 µM in the experiment with BT-549 breast; over 100 µM with CCRF-CEM leukemia; 15.3 µM in the experiment on COLO 205 colon; over 100 µM with HCT-15 colon; over 100 µM in the experiment with HL-60(TB) leukemia. The GI50 with KM12 colon was over 100 µM; in the experiment with PC-3 prostate it was 3.2 µM; in the experiment with RXF 393 renal it was 2.55 µM; with SW-620 colon it was over 100 µM. Besides, the TGI with 786-0 renal was 17.6 µM; in the experiment with BT-549 breast it was 5.61 µM; with CCRF-CEM leukemia, over 100 µM; with COLO 205 colon, 33 µM; in the experiment with HCT-15 colon it was over 100 µM; in the experiment on HL-60(TB) leukemia, over 100 µM. For the same compound, the TGI was over 100 µM in the experiment with KM12 colon, over 100 µM in the experiment on PC-3 prostate, 8.35 µM with RXF 393 renal and over 100 µM with SW-620 colon.

Regarding `CS(=O)(=O)Nc1ccc(-c2cc(-c3ccccc3)cc(C(N)=O)c2N)cc1`, the GI50 was over 25 µM with 786-0 renal; over 25 µM in the experiment with BT-549 breast; 17.8 µM with CCRF-CEM leukemia; over 25 µM in the experiment on COLO 205 colon; over 22.2 µM with HCT-15 colon; over 23.4 µM in the experiment on HL-60(TB) leukemia. In addition, the GI50 in the experiment with KM12 colon is 20.5 µM; in the experiment with PC-3 prostate it was 14.2 µM; with RXF 393 renal, over 25 µM; in the experiment on SW-620 colon it was over 25 µM. The TGI in the experiment on 786-0 renal, with BT-549 breast, in the experiment with CCRF-CEM leukemia, in the experiment on COLO 205 colon, in the experiment on HCT-15 colon and in the experiment on HL-60(TB) leukemia was over 25 µM each time. The TGI with KM12 colon, in the experiment with PC-3 prostate, with RXF 393 renal and in the experiment with SW-620 colon was over 25 µM in each case.

The values above are taken from PubChem BioAssay (NCI).
